# Source: ChEMBL document CHEMBL1152510, “Melanogenesis inhibitors from the rhizomes of Alpinia officinarum in B16 melanoma cells” (Bioorg Med Chem, 2009)
# The source made the active and inactive calls. The rule behind the calls is not given here.
# Key:
# [1] = target: T1, Tyrosinase (Agaricus bisporus) (UniProt O42713); test: Inhibition of mushroom tyrosinase at 1 uM
# T1 sequence (whole entry): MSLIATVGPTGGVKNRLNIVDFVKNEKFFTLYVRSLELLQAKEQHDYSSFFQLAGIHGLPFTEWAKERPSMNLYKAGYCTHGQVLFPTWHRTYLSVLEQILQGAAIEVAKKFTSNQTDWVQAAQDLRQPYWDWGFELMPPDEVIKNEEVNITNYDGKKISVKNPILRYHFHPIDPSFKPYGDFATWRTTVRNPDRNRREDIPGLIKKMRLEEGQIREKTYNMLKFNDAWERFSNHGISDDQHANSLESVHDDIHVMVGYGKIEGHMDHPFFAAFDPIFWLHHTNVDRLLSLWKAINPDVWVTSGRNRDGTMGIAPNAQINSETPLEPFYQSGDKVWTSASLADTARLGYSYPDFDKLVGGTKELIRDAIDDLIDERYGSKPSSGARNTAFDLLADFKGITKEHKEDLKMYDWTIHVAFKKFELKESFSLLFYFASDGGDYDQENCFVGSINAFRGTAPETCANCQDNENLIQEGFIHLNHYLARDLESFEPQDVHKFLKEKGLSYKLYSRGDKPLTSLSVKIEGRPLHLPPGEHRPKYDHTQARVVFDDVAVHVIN
# [2] = target: T1, Tyrosinase (Agaricus bisporus); test: Inhibition of mushroom tyrosinase at 3 uM
# Tyrosinase = target: T2, Tyrosinase (Agaricus bisporus, UniProt O42713)
# T2 sequence (O42713 whole entry): T1 sequence (whole entry)
# cells [3] = settings: Mus musculus, B16-4A5, 72 h, read-out: INH
# Description: Inhibition of melanogenesis in theophylline-stimulated mouse B16-4A5 cells at 1 uM after 72 hrs
# cells [4] = settings: Mus musculus, B16-4A5, 72 h, read-out: INH; remark: listed apart in the source
# Description: Inhibition of melanogenesis in theophylline-stimulated mouse B16-4A5 cells at 3 uM after 72 hrs
# cells [5] = settings: Mus musculus, B16-4A5, 72 h, read-out: INH; remark: listed apart in the source
# Description: Inhibition of melanogenesis in theophylline-stimulated mouse B16-4A5 cells at 10 uM after 72 hrs
# cells [6] = settings: Mus musculus, B16-4A5, 72 h, read-out: INH; remark: listed apart in the source
# Description: Inhibition of melanogenesis in theophylline-stimulated mouse B16-4A5 cells at 30 uM after 72 hrs
# B16 = test: cells; settings: Mus musculus, B16, 72 h
# Description: Inhibition of melanogenesis in theophylline-stimulated mouse B16-4A5 cells after 72 hrs
# cells [7] = settings: Mus musculus, B16-4A5, 68 h, read-out: INH
# Description: Inhibition of theophylline-stimulated mouse B16-4A5 cell proliferation assessed as cell viability at 1 uM after 68 hrs by WST8 assay
# cells [8] = settings: Mus musculus, B16-4A5, 68 h, read-out: INH; remark: listed apart in the source
# Description: Inhibition of theophylline-stimulated mouse B16-4A5 cell proliferation assessed as cell viability at 3 uM after 68 hrs by WST8 assay
# cells [9] = settings: Mus musculus, B16-4A5, 68 h, read-out: INH; remark: listed apart in the source
# Description: Inhibition of theophylline-stimulated mouse B16-4A5 cell proliferation assessed as cell viability at 10 uM after 68 hrs by WST8 assay
# cells [10] = settings: Mus musculus, B16-4A5, 68 h, read-out: INH; remark: listed apart in the source
# Description: Inhibition of theophylline-stimulated mouse B16-4A5 cell proliferation assessed as cell viability at 30 uM after 68 hrs by WST8 assay
# cells [11] = settings: Mus musculus, B16-4A5, 68 h, read-out: INH; remark: listed apart in the source
# Description: Inhibition of theophylline-stimulated mouse B16-4A5 cell proliferation assessed as cell viability at 100 uM after 68 hrs by WST8 assay
# cells [12] = settings: Mus musculus, B16-4A5, 68 h
# Description: Inhibition of theophylline-stimulated mouse B16-4A5 cell proliferation assessed as cell viability after 68 hrs by WST8 assay
# cells [13] = settings: Mus musculus, B16-4A5, 72 h, read-out: INH; remark: listed apart in the source
# Description: Inhibition of melanogenesis in theophylline-stimulated mouse B16-4A5 cells at 100 uM after 72 hrs
# B16-4A5 [14] = test: Inhibition of tyrosinase mRNA expression in theophylline-stimulated mouse B16-4A5 cells at 1 to 30 uM after 72 hrs; format: functional, cell-based
# B16-4A5 [15] = test: Inhibition of TRP1 mRNA expression in theophylline-stimulated mouse B16-4A5 cells at 1 to 30 uM after 72 hrs; format: functional, cell-based
# B16-4A5 [16] = test: Inhibition of TRP2 mRNA expression in theophylline-stimulated mouse B16-4A5 cells at 1 to 30 uM after 72 hrs; format: functional, cell-based
# B16-4A5 [17] = test: Inhibition of microphthalmia-associated transcriptional factor level in theophylline-stimulated mouse B16-4A5 cells at 1 to 30 uM after 24 hrs; format: functional, cell-based
# B16-4A5 [18] = test: Inhibition of microphthalmia-associated transcriptional factor level in theophylline-stimulated mouse B16-4A5 cells at 1 to 30 uM after 48 hrs; format: functional, cell-based
# [19] = Inhibition of melanogenesis in theophylline-stimulated mouse B16-4A5 cells at 300 uM after 72 hrs; format: functional; settings: B16-4A5, 72 h
# [20] = Inhibition of melanogenesis in theophylline-stimulated mouse B16-4A5 cells at 1000 uM after 72 hrs; format: functional; settings: B16-4A5, 72 h
# [21] = Inhibition of theophylline-stimulated mouse B16-4A5 cell proliferation assessed as cell viability at 300 uM after 68 hrs by WST8 assay; format: functional; settings: B16-4A5, 68 h
# [22] = Inhibition of theophylline-stimulated mouse B16-4A5 cell proliferation assessed as cell viability at 1000 uM after 68 hrs by WST8 assay; format: functional; settings: B16-4A5, 68 h
inhibition [1] [%],inhibition [2] [%],IC50 (Tyrosinase) [µM],IC50 (B16) [µM],IC50 (cells [12]) [µM],Structure (SMILES),inhibition at 1 µM (cells [3]) [%],inhibition at 3 µM (cells [4]) [%],inhibition at 10 µM (cells [5]) [%],inhibition at 30 µM (cells [6]) [%],inhibition at 1 µM (cells [7]) [%],inhibition at 3 µM (cells [8]) [%],inhibition at 10 µM (cells [9]) [%],inhibition at 30 µM (cells [10]) [%],inhibition at 100 µM (cells [11]) [%],inhibition at 100 µM (cells [13]) [%],also measured
5.7,7.6,> 100,20,88,O=c1c(O)c(-c2ccc(O)cc2)oc2cc(O)cc(O)c12 [KAEMPFEROL],8.3,9.9,23.4,61.1,5.6,18.1,23.5,26.1,56,,
1.4,2.1,> 100,> 100,> 100,COc1cc(CCC(C)=O)ccc1O [ZINGERONE],7.6,3.7,6.1,8.3,-0.5,-2.8,-8,-8.8,-6.1,15.5,
2.7,4.6,> 100,33,60,O[C@H](CCc1ccccc1)C[C@H](O)CCc1ccccc1,10.4,11.1,7.2,48.1,1.1,-0.5,1.6,-2.3,90.2,,
1.8,2.8,> 100,> 100,> 100,O=C1c2c(O)cc(O)cc2O[C@H](c2ccccc2)[C@H]1O [PINOBAKSIN],,-5.8,10.8,16.9,2.2,3.6,7,7.1,6.9,47.7,
3.8,5.3,> 100,> 100,> 100,O=C(O)CCc1ccccc1 [PHENYL PROPIONIC ACID],0.1,6.3,3.8,16.9,-1.4,-2.8,1.2,1.3,2.9,20.9,
3.3,2.5,> 100,48,> 100,O=C(CCc1ccccc1)C[C@H](O)CCc1ccccc1,-3.3,6.8,10.6,33,0,0.7,-4.7,-7.6,-7.6,67.8,
3.2,3,> 100,10,60,COc1cc(CC/C=C/C(=O)CCc2ccccc2)ccc1O,11.6,22.5,49.3,80.1,3.2,3.8,5.1,2.6,90.6,,Activity (B16-4A5 [14]): Active; Activity (B16-4A5 [15]): Active; Activity (B16-4A5 [16]): Active; Activity (B16-4A5 [17]): inactive; Activity (B16-4A5 [18]): Active
6,4.4,> 100,84,> 100,O=C1c2c(O)cc(O)cc2O[C@H](c2ccc(O)cc2)[C@H]1O [DIHYDROKAEMPFEROL],8.7,1.2,12.7,20.5,0.2,5.9,13.8,23.9,30.5,56,
2.3,4.7,> 100,30,> 100,COc1cc(CC[C@@H](O)CC(=O)CCc2ccccc2)ccc1O,7.5,8.9,23.4,49.2,5.3,11.7,11.8,15.1,20.8,81.1,
,,,116,> 1000,OC[C@H]1O[C@@H](Oc2ccc(O)cc2)[C@H](O)[C@@H](O)[C@@H]1O [ARBUTIN],,,6.7,17.8,,,8.7,17.6,21.9,46.9,inhibition at 300 µM [19]: 71%; inhibition at 1000 µM [20]: 88.7%; inhibition at 300 µM [21]: 20.2%; inhibition at 1000 µM [22]: 46.9%
-1.7,-0.2,> 100,16,> 100,COc1ccc(-c2oc3cc(O)cc(O)c3c(=O)c2O)cc1 [KAEMPFERIDE],0,5.9,39.9,81.2,-2,3.1,7.9,7.4,11.2,78.4,Activity (B16-4A5 [14]): Active; Activity (B16-4A5 [15]): Active; Activity (B16-4A5 [16]): Active; Activity (B16-4A5 [17]): inactive; Activity (B16-4A5 [18]): Active
28,26.6,> 100,17,100,O=c1c(O)c(-c2ccccc2)oc2cc(O)cc(O)c12 [GALANGIN],-0.5,-5.3,43.4,87.1,1.7,7.1,11.4,12.7,53.3,,Activity (B16-4A5 [14]): Active; Activity (B16-4A5 [15]): Active; Activity (B16-4A5 [16]): Active; Activity (B16-4A5 [17]): inactive; Activity (B16-4A5 [18]): Active
